From article PMC9221851, “A Fluorescence-Based Competitive Antibody Binding Assay for Kynurenine, a Potential Biomarker of Kidney Transplant Failure” (Diagnostics, 2022)

Legend:
[1] = molecular target: T1, anti-kynurenine antibody (monoclonal Mouse IgG1a k chain, clone 3D4-F2); assay: competitive magnetic bead immunoassay, displacement of fluorescent conjugate […] in PBS; assay type: binding
T1 construct: biotinylated whole antibody on streptavidin magnetic beads

[2] = molecular target: T1, anti-kynurenine antibody (monoclonal Mouse IgG1a k chain, clone 3D4-F2); assay: magnetic bead immunoassay, fluorescence of unbound conjugate in supernatant; assay type: binding

Structure (SMILES)	IC50 [1]	Kd [2]
Nc1ccccc1C(=O)C[C@H](N)C(=O)O [L-kynurenine]	4 µM	
CCN(CC)c1ccc2c(-c3ccccc3C(=O)OCc3cn(CCOCCOCCOCCNC(=O)[C@@H](N)CC(=O)c4ccccc4N)nn3)c3ccc(N(CC)CC)cc3[o+]c2c1 [compound 5, L-Kyn-4EG-RhB]		5.9 µM
